Source: article PMC7772087 (Biosensors & Bioelectronics, 2020)

Target: T1, NF-κB p50 (Homo sapiens, UniProt P19838)
T1 sequence (P19838 1-968): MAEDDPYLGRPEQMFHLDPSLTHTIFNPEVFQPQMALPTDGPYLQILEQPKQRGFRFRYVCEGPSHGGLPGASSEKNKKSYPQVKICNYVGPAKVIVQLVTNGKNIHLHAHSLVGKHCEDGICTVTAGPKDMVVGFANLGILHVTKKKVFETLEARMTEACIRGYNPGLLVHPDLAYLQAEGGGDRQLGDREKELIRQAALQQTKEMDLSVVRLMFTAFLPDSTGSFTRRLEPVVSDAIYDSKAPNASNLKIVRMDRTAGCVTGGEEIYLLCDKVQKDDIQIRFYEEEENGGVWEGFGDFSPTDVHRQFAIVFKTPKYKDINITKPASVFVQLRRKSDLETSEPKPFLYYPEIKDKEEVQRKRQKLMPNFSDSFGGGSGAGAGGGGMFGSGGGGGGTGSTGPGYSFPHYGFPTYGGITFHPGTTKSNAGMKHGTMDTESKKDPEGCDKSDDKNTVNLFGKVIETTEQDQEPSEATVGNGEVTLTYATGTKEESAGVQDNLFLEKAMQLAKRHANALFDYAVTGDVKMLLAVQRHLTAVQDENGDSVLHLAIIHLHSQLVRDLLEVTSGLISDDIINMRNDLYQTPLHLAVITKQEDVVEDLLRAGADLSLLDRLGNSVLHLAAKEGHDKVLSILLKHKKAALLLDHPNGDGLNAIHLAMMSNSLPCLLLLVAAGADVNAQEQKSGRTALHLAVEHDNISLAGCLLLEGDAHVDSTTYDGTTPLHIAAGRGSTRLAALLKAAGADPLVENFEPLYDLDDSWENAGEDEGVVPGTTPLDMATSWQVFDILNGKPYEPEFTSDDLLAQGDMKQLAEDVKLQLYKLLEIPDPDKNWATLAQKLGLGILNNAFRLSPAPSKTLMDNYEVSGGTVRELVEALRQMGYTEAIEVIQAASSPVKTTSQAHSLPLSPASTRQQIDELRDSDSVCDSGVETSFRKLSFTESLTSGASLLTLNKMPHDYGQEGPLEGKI
Test: Electrochemiluminescence biosensor of recombinant p50 binding to dsDNA

IC50: 830 pM
SMILES: O=C(NC1=CC(=O)[C@H]2O[C@H]2[C@H]1O)c1ccccc1O [(−)-DHMEQ]
